Measurements from patent publication US11045455B2, “Azetidine derivative, preparation method therefor, and use thereof” (SICHUAN KELUN-BIOTECH BIOPHARMACEUTICAL CO., LTD., priority 2016, dated 2021).
Structures can show the parent of a compound that is named as a salt. Where two headings read alike, the source gives them in different places.

Key:
JAK1 = JAK1 (Homo sapiens (Human), UniProt P23458); test: JAK1 enzymatic inhibition assay (ADP-Glo luminescence); type: biochemical
Procedure: (§1) Test Materials • JAK1, JAK2, JAK3 and TYK2 enzymes were purchased from Life Technologies; and substrate GFP-STAT1 was purchased from Life Technologies.
(§2) Test compounds, enzymes, the substrate and ATP were diluted to the desired concentrations with the assay buffer (40 mM Tris-HCl, pH 7.4, 20 mM MgCl2, 0.1% BSA). The former three were added into a multiple well plate, and incubated at room temperature after being mixed homogeneously. ATP was added to initiate the kinase reaction, and incubation at room temperature was performed. ADP-Glo was added, and incubation at room temperature was performed. The kinase detector reagent was then added, and incubation at room temperature was performed. The luminescence intensity of each test group was detected, and the half maximal inhibitory concentration (IC50) value was calculated.

JAK2 = JAK2 (Homo sapiens (Human), UniProt O60674); test: JAK2 enzymatic inhibition assay (ADP-Glo luminescence); type: biochemical
Chain of JAK2 (O60674 whole entry): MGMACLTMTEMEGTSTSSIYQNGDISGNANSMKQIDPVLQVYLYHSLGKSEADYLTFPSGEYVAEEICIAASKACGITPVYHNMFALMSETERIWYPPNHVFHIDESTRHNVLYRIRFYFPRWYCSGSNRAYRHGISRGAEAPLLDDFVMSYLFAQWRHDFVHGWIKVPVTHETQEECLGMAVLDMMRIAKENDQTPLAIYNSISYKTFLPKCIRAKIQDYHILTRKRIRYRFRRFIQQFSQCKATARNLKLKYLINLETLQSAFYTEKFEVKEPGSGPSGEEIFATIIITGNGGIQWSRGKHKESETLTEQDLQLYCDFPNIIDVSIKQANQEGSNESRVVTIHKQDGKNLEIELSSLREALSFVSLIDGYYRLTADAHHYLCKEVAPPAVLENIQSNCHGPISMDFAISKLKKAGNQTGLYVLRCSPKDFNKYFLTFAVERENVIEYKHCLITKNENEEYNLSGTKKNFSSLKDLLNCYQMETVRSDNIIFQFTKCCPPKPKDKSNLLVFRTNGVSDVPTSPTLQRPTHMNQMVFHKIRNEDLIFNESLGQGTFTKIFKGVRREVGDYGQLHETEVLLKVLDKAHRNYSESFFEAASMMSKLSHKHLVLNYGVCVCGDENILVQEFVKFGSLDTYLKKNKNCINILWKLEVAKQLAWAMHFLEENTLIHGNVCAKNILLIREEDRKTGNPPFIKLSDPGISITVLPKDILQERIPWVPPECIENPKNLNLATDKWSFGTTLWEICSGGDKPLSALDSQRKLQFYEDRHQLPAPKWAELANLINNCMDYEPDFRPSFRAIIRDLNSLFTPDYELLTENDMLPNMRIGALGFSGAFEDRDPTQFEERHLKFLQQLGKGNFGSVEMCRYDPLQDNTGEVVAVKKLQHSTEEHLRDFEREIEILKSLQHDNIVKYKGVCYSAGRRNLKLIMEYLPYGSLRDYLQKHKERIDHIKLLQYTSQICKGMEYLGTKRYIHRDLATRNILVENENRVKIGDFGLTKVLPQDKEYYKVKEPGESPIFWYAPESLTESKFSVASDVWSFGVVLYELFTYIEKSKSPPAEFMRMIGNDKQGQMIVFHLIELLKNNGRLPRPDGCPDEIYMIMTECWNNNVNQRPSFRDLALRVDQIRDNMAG
Procedure: as §1, §2

hERG potassium channel = hERG potassium channel (Homo sapiens (Human), UniProt Q12809); test: Predictor hERG Fluorescence Polarization Assay; type: binding; conditions: tested at 3, 10 and 30 μM
Chain of hERG potassium channel (Q12809 whole entry): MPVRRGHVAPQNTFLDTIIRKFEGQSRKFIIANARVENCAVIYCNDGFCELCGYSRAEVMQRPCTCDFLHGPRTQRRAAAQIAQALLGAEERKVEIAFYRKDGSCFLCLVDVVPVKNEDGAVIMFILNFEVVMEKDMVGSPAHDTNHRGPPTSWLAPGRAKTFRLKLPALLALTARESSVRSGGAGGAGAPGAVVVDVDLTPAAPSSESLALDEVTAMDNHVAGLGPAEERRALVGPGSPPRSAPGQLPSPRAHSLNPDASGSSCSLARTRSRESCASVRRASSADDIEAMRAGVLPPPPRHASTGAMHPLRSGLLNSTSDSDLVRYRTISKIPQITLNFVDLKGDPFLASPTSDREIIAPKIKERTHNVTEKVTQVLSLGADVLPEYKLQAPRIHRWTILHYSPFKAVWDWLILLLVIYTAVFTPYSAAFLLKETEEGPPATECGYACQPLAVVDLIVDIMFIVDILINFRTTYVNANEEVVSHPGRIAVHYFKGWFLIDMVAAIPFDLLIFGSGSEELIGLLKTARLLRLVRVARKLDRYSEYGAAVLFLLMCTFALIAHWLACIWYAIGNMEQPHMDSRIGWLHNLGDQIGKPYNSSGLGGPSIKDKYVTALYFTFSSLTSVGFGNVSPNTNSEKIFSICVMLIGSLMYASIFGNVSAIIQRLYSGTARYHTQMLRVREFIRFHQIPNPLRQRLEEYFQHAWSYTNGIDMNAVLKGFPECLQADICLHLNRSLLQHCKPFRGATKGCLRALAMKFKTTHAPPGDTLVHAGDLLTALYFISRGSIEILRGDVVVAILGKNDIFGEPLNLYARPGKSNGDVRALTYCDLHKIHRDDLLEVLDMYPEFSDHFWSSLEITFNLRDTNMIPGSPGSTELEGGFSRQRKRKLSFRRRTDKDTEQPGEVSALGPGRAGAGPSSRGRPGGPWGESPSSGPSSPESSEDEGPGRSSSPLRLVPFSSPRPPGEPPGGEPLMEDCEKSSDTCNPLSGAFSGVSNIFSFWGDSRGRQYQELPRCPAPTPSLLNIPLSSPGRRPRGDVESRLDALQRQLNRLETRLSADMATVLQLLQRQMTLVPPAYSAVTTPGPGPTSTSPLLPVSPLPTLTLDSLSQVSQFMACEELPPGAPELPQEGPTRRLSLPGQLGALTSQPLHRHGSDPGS
Procedure: Experimental Example 2: Safety Test
The effect of test compounds on hERG potassium channel were determined using Predictor™ hERG Fluorescence Polarization Assay at concentrations of 3, 10, and 30 μM.

Chain of JAK1 (P23458 whole entry): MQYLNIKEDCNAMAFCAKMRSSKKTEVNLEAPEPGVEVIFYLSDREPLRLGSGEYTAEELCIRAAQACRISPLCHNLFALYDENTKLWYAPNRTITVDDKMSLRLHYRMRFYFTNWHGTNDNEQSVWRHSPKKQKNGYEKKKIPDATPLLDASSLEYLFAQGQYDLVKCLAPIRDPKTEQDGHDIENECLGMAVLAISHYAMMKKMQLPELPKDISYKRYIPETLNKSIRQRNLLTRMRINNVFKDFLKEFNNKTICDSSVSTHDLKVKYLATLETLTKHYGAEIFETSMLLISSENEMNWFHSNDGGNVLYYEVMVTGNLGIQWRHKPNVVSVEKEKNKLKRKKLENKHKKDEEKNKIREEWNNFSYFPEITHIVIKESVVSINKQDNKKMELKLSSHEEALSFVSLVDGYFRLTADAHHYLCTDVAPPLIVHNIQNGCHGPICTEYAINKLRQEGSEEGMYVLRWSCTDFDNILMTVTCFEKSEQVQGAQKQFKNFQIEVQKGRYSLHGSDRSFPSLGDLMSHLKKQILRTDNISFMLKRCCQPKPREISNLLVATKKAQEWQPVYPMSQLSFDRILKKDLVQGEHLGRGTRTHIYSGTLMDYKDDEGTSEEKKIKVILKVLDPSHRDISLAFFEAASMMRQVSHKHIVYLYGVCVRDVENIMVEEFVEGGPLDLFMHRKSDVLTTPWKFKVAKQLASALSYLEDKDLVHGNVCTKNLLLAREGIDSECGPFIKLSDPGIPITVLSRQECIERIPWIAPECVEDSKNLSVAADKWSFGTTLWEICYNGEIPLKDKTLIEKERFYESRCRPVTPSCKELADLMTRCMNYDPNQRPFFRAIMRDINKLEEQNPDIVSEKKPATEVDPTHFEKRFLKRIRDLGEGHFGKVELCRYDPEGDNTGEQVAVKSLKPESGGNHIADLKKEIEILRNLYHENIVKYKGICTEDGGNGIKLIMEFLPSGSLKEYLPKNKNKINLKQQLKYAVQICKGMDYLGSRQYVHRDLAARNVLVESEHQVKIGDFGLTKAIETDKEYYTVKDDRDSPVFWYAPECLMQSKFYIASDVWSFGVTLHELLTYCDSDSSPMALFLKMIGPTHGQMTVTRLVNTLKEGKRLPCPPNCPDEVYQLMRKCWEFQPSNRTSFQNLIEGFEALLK

SMILES	IC50 (JAK1) [nM]	IC50 (JAK2) [nM]	IC50 (JAK2; Hydrochloride Salt) [nM]	IC50 (hERG potassium channel) [nM]
CCS(=O)(=O)N1CC(C(C)C#N)(n2cc(-c3c(C#N)cnc4[nH]ccc34)cn2)C1 (stereo not drawn) [Compound 45, 4-(1-(3-(1-cyanoethyl)-1-(ethylsulfonyl)azetidin-3-yl)-1H-pyrazol-4-yl)-1H-pyrrolo[2,3-b]pyridine-5-carbonitrile]	1.66	3.22	–	–
CCS(=O)(=O)N1CC(CC#N)(n2cc(C)c(-c3ncnc4[nH]ccc34)c2)C1 [Compound 56, 2-(1-(ethylsulfonyl)-3-(3-methyl-4-(7H-pyrrolo[2,3-d]pyrimidin-4-yl)-1H-pyrrol-1-yl)azetidin-3-yl)acetonitrile]	3.52	1.76	–	–
CCS(=O)(=O)N1CC(CC#N)(n2cc(-c3c(Cl)cnc4[nH]ccc34)cn2)C1 [Compound 50-HCl, 2-(3-(4-(5-chloro-1H-pyrrolo[2,3-b]pyridin-4-yl)-1H-pyrazol-1-yl)-1-(ethylsulfonyl)azetidin-3-yl)acetonitrile Hydrochloride Salt]	–	–	0.62	–
CN(C)S(=O)(=O)N1CC(CC#N)(n2cc(-c3ccnc4[nH]ccc34)cn2)C1 [Compound 14, 3-(4-(1H-pyrrolo[2,3-b]pyridin-4-yl)-1H-pyrazol-1-yl)-3-(cyanomethyl)-N,N-dimethylazetidine-1-sulfonamide]	1.3	0.5	–	> 30000
N#CCC1(n2cc(-c3c(C#N)cnc4[nH]ccc34)cn2)CN(S(=O)(=O)CCC(F)(F)F)C1 [Compound 44, 4-(1-(3-(cyanomethyl)-1-((3,3,3-trifluoropropyl)sulfonyl)azetidin-3-yl)-1H-pyrazol-4-yl)-1H-pyrrolo[2,3-b]pyridine-5-carbonitrile]	1.95	3.93	–	–
N#CCC1(n2cc(-c3ccnc4[nH]ccc34)cn2)CN(S(=O)(=O)C2CC2)C1 [Compound 26, 2-(3-(4-(1H-pyrrolo[2,3-b]pyridin-4-yl)-1H-pyrazol-1-yl)-1-(cyclopropylsulfonyl)azetidin-3-yl)acetonitrile]	0.46	0.37	–	> 30000
CCS(=O)(=O)N1CC(CC#N)(n2cc(-c3c(F)cnc4[nH]ccc34)cn2)C1 [Compound 52-HCl, 2-(1-(ethylsulfonyl)-3-(4-(5-fluoro-1H-pyrrolo[2,3-b]pyridin-4-yl)-1H-pyrazol-1-yl)azetidin-3-yl)acetonitrile Hydrochloride Salt]	–	–	0.35	–
CN(C)S(=O)(=O)N1CC(CC#N)(n2cc(-c3c(C#N)cnc4[nH]ccc34)cn2)C1 [Compound 34, 3-(4-(5-cyano-1H-pyrrolo[2,3-b]pyridin-4-yl)-1H-pyrazol-1-yl)-3-(cyanomethyl)-N,N-dimethylazetidine-1-sulfonamide]	0.8	1.66	–	–
CC1(S(=O)(=O)N2CC(CC#N)(n3cc(-c4c(C#N)cnc5[nH]ccc45)cn3)C2)CC1 [Compound 1, 4-(1-(3-(cyanomethyl)-1-((1-methylcyclopropyl)sulfonyl)azetidin-3-yl)-1H-pyrazol-4-yl)-1H-pyrrolo[2,3-b]pyridine-5-carbonitrile]	0.78	1.98	–	> 30000
CCCS(=O)(=O)N1CC(CC#N)(n2cc(-c3ccnc4[nH]ccc34)cn2)C1 [Compound 23, 2-(3-(4-(1H-pyrrolo[2,3-b]pyridin-4-yl)-1H-pyrazol-1-yl)-1-(propylsulfonyl)azetidin-3-yl)acetonitrile]	2.41	0.89	–	> 30000
CCS(=O)(=O)N1CC(CC#N)(n2ccc(-c3c(C#N)cnc4[nH]ccc34)c2)C1 [Compound 17, 4-(1-(3-(cyanomethyl)-1-(ethylsulfonyl)azetidin-3-yl)-1H-pyrrol-3-yl)-1H-pyrrolo[2,3-b]pyridine-5-carbonitrile]	1.13	0.93	–	> 30000
CCCS(=O)(=O)N1CC(CC#N)(n2cc(-c3c(C#N)cnc4[nH]ccc34)cn2)C1 [Compound 40, 4-(1-(3-(cyanomethyl)-1-(propylsulfonyl)azetidin-3-yl)-1H-pyrazol-4-yl)-1H-pyrrolo[2,3-b]pyridine-5-carbonitrile]	0.97	2.24	–	–
